The text below walks through data of paper PMC11647725, “Discovery of 4-(5-Membered)Heteroarylether-6-methylpicolinamide Negative Allosteric Modulators of Metabotropic Glutamate Receptor Subtype 5” (ACS Medicinal Chemistry Letters, 2024).

One series has as its target T1, human mGlu7 (Homo sapiens, UniProt Q14831).
T1 construct: expressed in transfected cells
The series can be described thus: mGlu selectivity, calcium mobilization assay. In kind it is cell-based. How it is done:
(§1) the presence of 5% CO2, the dye solutions were removed and replaced with assay buffer using a microplate washer, leaving 20 μL of assay buffer in the cell plate. The compound, agonist, and cell plates were placed inside the Functional Drug Screening System (FDSS 7000 or uCell, Hamamatsu, Japan) to measure the calcium flux. Assays were run at 37 °C. A triple add protocol was used to measure Ca kinetics. Briefly, after establishment of a fluorescence baseline for 2 seconds (excitation, 480 nm; emission, 530 nm), 20 µL of test compound was added to the cells and the response was measured for 140 seconds. This was followed by the addition of 10 µL (5X) of an EC20 concentration of Glu agonist, and the response of the cells was measured for 125 seconds. A third addition occurred by adding 12 uL (5X) of an EC80 concentration of Glu agonist and the response of the cells was measured for 90 seconds. […] Calcium fluorescence was recorded as fold over basal fluorescence and raw data were normalized to the maximal response to Glu agonist (ECMax). Compound-evoked decreases in calcium response in the presence of Glu EC80 agonist were determined as inhibition activity, and potency (IC50) and maximum inhibition responses (% GluMin) of compounds were determined using a four-parameter logistical equation using GraphPad Prism (La Jolla, CA) or the Dotmatics software platform (Woburn, MA) : […]
(Calcium assays in cells follow changes in intracellular calcium, usually with a dye or a luminescent sensor.)

A further series deals with T2, human mGlu8 (Homo sapiens, UniProt O00222).
T2 construct: expressed in transfected cells
T2 sequence (O00222 34-908): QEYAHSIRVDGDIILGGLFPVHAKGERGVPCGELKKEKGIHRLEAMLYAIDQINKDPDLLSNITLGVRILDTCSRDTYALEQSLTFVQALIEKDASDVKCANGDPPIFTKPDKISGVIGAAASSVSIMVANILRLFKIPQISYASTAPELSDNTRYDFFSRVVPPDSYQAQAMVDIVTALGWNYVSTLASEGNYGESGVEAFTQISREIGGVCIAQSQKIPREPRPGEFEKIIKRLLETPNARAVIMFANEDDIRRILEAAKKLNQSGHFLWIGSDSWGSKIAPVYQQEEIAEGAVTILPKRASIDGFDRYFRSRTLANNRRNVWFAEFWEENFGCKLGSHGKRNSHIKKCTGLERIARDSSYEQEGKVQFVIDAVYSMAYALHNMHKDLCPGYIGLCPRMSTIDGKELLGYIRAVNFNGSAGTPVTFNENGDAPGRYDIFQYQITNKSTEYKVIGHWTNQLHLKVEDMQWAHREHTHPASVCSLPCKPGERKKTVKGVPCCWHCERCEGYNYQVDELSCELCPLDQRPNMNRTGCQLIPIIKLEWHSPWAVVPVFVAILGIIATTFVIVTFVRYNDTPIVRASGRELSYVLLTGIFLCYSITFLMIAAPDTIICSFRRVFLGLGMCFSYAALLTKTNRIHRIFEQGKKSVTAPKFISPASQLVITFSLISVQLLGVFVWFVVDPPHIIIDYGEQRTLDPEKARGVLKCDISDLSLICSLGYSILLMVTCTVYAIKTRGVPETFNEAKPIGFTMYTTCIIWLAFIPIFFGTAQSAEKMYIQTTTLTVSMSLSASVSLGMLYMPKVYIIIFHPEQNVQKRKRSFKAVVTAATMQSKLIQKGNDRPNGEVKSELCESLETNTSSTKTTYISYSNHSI
The series can be described thus: mGlu selectivity, calcium mobilization assay. In kind it is cell-based. How it is done: as §1

Series [1] is described as follows: Hepatocyte metabolism study. In kind it is in vitro ADME. As to conditions: dog hepatocytes, more so than any other species tested. An excerpt:
(§2) Nonetheless, as a non-aryl/heterobiaryl acetylene mGlu5 NAM with an encouraging in vivo rodent PK profile, we wished to further assess VU6043653 as a novel chemotype. Therefore, we compared metabolites in multiple species to better understand species differences in clearance and metabolism. […] Consistent with the high plasma clearance observed in dogs, high turnover was observed more so in dog hepatocytes than any other species tested (see the Supporting Information for additional details and results). To further evaluate our novel chemotype, the off-target and safety/toxicity profiles for this compound were further investigated.
Table S3. Tentatively Identified Metabolites of VU6043653 in Rat, Dog, Monkey, and Human Hepatocytes (10 μM incubation for 0 and 4 hours). […]
metabolite observed with rat, dog, monkey, and human hepatocytes was M1. Overall, the major pathways for VU6043653 appear to be oxidation, demethylation, and glucuronidation.
(1 picture or pasted object on this page, not shown here)

The next series relates to Imidazoline I2, Central. The series can be described thus: Lead Profiling Screen, Eurofins Panlabs. As to conditions: rat. Format: binding.
Excerpt: as §2
Table S2. Lead Profiling Screen – Eurofins Panlabs for VU6043653.
Assay Name Species % inh at 10 μM […]
Imidazoline I2, Central rat -1

The next series addresses Neuropeptide Y Y2 (Homo sapiens, UniProt P49146). The series can be described thus: Lead Profiling Screen, Eurofins Panlabs. Format: binding. As to conditions: Neuropeptide Y Y2, hum, read-out: % inh at 10 μM.
The next series has as its target Opiate δ1 (OP1, DOP) (Homo sapiens, UniProt P41143). The series can be described thus: Lead Profiling Screen, Eurofins Panlabs. In kind it is binding. Conditions: hum, read-out: % inh at 10 μM.
A further series addresses Opiate κ (OP2, KOP) (Homo sapiens, UniProt P41145). The series can be described thus: Lead Profiling Screen, Eurofins Panlabs. Format: binding. Conditions: hum, read-out: % inh at 10 μM.
A further series concerns Phorbol Ester. The series can be described thus: Lead Profiling Screen, Eurofins Panlabs. Conditions: mouse. In kind it is binding.
A further series deals with Prostanoid EP4 (Homo sapiens, UniProt P35408). The series can be described thus: Lead Profiling Screen, Eurofins Panlabs. In kind it is binding. Conditions: Prostanoid EP4, hum, read-out: % inh at 10 μM.
Prostanoid EP4, sequence (P35408 whole entry): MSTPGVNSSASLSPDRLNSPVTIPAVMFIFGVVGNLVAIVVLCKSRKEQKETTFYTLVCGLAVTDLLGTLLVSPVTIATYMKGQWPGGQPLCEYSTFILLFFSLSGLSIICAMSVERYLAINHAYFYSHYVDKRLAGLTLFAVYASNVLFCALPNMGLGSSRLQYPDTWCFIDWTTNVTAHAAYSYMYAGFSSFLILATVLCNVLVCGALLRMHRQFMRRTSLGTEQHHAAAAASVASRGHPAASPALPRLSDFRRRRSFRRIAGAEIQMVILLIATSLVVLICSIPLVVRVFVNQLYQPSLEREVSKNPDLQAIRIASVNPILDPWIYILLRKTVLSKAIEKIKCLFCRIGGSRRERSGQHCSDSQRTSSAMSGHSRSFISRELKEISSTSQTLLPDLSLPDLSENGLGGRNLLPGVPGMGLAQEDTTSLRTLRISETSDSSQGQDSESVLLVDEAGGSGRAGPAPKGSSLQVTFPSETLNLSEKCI
The subject of a further series is Purinergic P2X. The series can be described thus: Lead Profiling Screen, Eurofins Panlabs. Conditions: rat. In kind it is binding.
The target of series [2] is Serotonin (5-Hydroxytryptamine) 5-HT3 (Homo sapiens, UniProt P46098). The series can be described thus: Lead Profiling Screen, Eurofins Panlabs. In kind it is binding. As to conditions: Serotonin 5-HT3, hum, read-out: % inh at 10 μM.
Serotonin (5-Hydroxytryptamine) 5-HT3, sequence (P46098 24-478): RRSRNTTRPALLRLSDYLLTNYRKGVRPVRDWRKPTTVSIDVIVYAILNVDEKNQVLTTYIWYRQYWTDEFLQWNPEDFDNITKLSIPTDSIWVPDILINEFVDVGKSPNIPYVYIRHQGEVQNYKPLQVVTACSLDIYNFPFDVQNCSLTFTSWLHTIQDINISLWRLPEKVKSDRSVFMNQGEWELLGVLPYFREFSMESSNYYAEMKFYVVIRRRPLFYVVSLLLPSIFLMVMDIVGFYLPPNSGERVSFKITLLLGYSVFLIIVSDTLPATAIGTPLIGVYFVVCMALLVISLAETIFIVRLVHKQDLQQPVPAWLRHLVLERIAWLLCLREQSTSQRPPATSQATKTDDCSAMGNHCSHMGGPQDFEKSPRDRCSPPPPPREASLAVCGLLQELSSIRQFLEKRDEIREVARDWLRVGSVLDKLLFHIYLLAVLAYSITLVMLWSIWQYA
The next series has as its target Tachykinin NK1 (Homo sapiens, UniProt P25103). The series can be described thus: Lead Profiling Screen, Eurofins Panlabs. In kind it is binding. Conditions: Tachykinin NK1, hum, read-out: % inh at 10 μM.
Series [3] concerns the target Transporter, Norepinephrine (NET) (Homo sapiens, UniProt P23975). The series can be described thus: Lead Profiling Screen, Eurofins Panlabs. Conditions: hum, read-out: % inh at 10 μM. Format: binding.

Neuropeptide Y Y2, sequence (P49146 whole entry): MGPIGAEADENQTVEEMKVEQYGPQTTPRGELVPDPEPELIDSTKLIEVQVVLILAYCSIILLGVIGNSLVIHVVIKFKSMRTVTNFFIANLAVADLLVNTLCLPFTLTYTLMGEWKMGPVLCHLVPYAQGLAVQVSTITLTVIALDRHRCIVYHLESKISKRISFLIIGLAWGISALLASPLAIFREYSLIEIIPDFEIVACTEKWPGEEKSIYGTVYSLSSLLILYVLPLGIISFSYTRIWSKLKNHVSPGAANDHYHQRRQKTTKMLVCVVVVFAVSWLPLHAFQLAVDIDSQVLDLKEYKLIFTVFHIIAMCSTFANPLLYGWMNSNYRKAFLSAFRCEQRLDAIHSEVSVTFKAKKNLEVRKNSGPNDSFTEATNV
Tachykinin NK1, sequence (P25103 whole entry): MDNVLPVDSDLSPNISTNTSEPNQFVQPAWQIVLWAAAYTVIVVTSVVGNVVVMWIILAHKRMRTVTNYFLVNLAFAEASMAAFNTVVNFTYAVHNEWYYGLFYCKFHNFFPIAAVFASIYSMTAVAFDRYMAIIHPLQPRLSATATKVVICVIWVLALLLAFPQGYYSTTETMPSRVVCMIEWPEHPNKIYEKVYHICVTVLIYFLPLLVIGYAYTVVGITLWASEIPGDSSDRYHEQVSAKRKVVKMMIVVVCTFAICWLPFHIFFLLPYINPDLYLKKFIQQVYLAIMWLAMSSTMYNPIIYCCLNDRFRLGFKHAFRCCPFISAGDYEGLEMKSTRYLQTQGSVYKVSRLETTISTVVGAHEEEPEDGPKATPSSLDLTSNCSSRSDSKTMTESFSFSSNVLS
Opiate κ (OP2, KOP), sequence (P41145 whole entry): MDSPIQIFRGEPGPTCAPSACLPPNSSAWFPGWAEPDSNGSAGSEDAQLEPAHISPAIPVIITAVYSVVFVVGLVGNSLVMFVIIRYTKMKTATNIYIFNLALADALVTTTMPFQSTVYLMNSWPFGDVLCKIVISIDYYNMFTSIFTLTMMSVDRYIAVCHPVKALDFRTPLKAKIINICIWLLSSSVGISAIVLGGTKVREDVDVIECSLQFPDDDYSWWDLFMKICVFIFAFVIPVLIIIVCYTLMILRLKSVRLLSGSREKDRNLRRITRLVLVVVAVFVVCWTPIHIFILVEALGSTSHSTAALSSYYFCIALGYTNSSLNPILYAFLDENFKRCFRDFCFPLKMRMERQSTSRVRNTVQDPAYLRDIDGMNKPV
Transporter, Norepinephrine (NET), sequence (P23975 whole entry): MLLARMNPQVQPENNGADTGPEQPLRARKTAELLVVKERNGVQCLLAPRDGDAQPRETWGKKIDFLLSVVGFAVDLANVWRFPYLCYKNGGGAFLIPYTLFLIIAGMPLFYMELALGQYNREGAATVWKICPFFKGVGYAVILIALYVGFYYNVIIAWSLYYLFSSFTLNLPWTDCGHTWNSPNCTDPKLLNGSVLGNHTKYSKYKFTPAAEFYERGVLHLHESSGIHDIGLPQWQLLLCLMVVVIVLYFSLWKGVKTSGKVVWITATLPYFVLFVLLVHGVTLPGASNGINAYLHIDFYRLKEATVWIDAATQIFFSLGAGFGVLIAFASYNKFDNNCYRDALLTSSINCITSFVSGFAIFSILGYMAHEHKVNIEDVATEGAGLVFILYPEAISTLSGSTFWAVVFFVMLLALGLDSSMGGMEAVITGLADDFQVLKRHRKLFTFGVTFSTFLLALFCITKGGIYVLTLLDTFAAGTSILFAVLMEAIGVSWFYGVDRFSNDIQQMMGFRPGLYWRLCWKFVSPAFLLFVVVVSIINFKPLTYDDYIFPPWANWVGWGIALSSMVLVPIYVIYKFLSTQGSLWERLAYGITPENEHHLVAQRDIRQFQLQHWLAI
T1 sequence (Q14831 35-915): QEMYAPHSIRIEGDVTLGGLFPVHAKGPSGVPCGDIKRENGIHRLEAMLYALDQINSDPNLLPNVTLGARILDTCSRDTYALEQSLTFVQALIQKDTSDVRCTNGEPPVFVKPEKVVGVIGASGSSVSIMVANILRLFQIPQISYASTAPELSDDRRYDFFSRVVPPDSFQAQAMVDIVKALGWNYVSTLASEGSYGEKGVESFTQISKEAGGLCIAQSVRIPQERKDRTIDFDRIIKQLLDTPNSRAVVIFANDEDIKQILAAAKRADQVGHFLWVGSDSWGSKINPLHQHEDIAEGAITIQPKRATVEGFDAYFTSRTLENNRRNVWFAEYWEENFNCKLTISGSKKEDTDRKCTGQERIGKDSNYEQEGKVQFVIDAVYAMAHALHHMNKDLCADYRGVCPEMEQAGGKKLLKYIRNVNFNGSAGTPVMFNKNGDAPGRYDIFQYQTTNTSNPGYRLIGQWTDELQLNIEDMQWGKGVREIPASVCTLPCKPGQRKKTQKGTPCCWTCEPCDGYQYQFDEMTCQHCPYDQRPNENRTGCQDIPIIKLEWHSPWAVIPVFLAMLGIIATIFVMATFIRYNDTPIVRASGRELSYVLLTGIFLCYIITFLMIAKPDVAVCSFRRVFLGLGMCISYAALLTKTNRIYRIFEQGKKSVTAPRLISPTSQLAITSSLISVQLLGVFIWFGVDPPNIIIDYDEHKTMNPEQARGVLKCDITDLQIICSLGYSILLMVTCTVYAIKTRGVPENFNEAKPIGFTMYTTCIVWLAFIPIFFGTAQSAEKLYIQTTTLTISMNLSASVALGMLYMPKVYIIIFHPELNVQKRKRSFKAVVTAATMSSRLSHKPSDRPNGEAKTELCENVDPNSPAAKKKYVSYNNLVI
Opiate δ1 (OP1, DOP), sequence (P41143 whole entry): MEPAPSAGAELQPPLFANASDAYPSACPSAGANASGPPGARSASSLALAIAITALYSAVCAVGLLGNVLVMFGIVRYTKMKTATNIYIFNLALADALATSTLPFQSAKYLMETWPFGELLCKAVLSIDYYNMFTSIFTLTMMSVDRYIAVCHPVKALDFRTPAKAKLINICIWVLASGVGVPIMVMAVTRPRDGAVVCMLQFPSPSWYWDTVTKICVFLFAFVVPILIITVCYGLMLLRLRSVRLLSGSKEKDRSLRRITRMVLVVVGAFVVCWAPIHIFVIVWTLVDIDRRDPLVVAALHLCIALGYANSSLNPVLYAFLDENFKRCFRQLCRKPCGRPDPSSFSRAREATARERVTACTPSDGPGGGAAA

As to `Cc1cc(Oc2cnn(C)c2)cc(C(=O)Nc2ccc(F)cn2)n1` [22iA], at human mGlu7, the “IC50, human mGlu7” value is “inactive”. For the same compound, the “IC50, human mGlu8” value on human mGlu8 was “inactive”. For the same compound, in series [1], the turnover in hepatocytes entry is reported as “high turnover”. Further, the “% inh at 10 μM” value in the series with Imidazoline I2, Central is on record as -1%; with Phorbol Ester, -1%; in the series with Purinergic P2X, 15%. The inhibition at 10 µM is -5% on Neuropeptide Y Y2; 3% on Opiate δ1 (OP1, DOP); 2% on Opiate κ (OP2, KOP); 8% at Prostanoid EP4; -6% in series [2]; 15% at Tachykinin NK1. For the same compound, the inhibition at 10 µM in series [3] was 63%.
